Laboratory results published in publication PMC9597602, “Metal Complexes as Antifungals? From a Crowd-Sourced Compound Library to the First In Vivo Experiments” (JACS Au, 2022).
Entries after “also recorded” stand apart in the source; their conditions may differ. Read-outs that look alike come from different tables or passages of the source.

Tests used:
[1] = system: Cryptococcus deuterogattii ATCC 32609 VGII; experiment: Antifungal MIC assay, extended panel; type: cell-based; conditions: extended panel; 50% inhibition, MIC score 2
[2] = system: Cryptococcus deuterogattii CBS7750 VGII; Serotype B; experiment: Antifungal MIC assay, extended panel; type: cell-based; conditions: extended panel; 50% inhibition, MIC score 2
[3] = system: Candida glabrata ATCC 90030 NCCLS 84; experiment: Antifungal MIC assay, extended panel; type: cell-based; conditions: extended panel; 50% inhibition, MIC score 2
[4] = system: Candida tropicalis ATCC 750; experiment: Antifungal MIC assay, extended panel; type: cell-based; conditions: extended panel; 50% inhibition, MIC score 2
[5] = Stability by NMR / UV-vis; type: physicochemical; conditions: for stability in DMSO solution, NMR or UV–vis spectra: after 24 h; for stability of solid samples, NMR spectra: room temperature, protected from light, 2 years
Description: The ligands for these complexes (Ligand-Ag1 and Ligand-Ag2 in the SI) were originally studied for their solvatochromism and were later coordinated with silver to investigate their potential antimicrobial activity.[84] The carboxylate ion is able to coordinate to silver with monodentate, chelating, and/or bridging modes. […] The stability of complexes Ag1 and Ag2 was assessed.
One concern with Pt1 is its potential stability under biological conditions. […] Future work will be aimed toward more comprehensive examinations of the chemical and biological stability of these and related compounds, as well as investigations into their mode of action.

[6] = system: Candida auris CBS10913 JCM 15448; experiment: Antifungal MIC assay, extended panel; type: cell-based; conditions: extended panel; for MIC / MIC Candida auris CBS10913: second batch, ≥80 or ≥50% inhibition; for MIC: read-out: MIC* Candida auris CBS10913; for MIC50 Candida auris CBS10913: 50% inhibition, MIC score 2
Method in brief: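 Yeast strains were grown on YPD agar at 30 °C for 3 days. Five colonies were suspended to 1 × 10^6 to 5 × 10^6 CFU/mL (by OD530), diluted in YNB medium, and dispensed into compound-containing 384-well NBS plates to 2.5 × 10^3 CFU/mL in 50 μL. Covered plates were held at 35 °C for 36 h without shaking, and MIC was determined by broth dilution.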

[7] = system: Candida auris CBS12373 KCTC 17810; experiment: Antifungal MIC assay, extended panel; type: cell-based; conditions: extended panel; for MIC / MIC Candida auris CBS12373: second batch, ≥80 or ≥50% inhibition; for MIC: read-out: MIC* Candida auris CBS12373; for MIC50 Candida auris CBS12373: 50% inhibition, MIC score 2
Method in brief: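 Yeast was grown for 3 days at 30 °C on YPD agar. Five colonies were suspended to 1 × 10^6 to 5 × 10^6 CFU/mL, checked by OD530, diluted in YNB medium, and dispensed onto compound-loaded 384-well NBS plates at 2.5 × 10^3 CFU/mL in 50 μL. Plates were covered and incubated without shaking at 35 °C for 36 h to determine MIC.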

[8] = system: human red blood cells; type: cell-based
Method in brief: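 Washed human erythrocytes at 0.5 × 10^8 cells/mL incubated with compound, then centrifuged. Haemolysis read as supernatant OD405, normalised to untreated cells (0%) and 1% Triton X-100 (100%), with melittin as internal plate control.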

[9] = system: MRSA; design: method as in PMID 34018686; conditions: G. mellonella infected with MRSA; cited from earlier work
[10] = system: C. albicans (ATCC 90028); experiment: Galleria mellonella infection (survival) assay; type: in vivo, Candida albicans in Galleria mellonella larvae; conditions: G. mellonella inoculated with C. albicans, 10 μL compound solution, 5 days, vs untreated control
Description: In an initial survival assay, G. mellonella larvae were inoculated with C. albicans (ATCC 90028). The larvae were then injected with 10 μL of the compound solution, and their survival was monitored for the next 5 days. Fluconazole and 10% DMSO injections were used as controls.
The globally available strains for C. albicans and C. neoformans, namely, ATCC 90028 and H99, respectively, were used to assess the antifungal potential of the panel of cobalt complex compounds in the G. mellonella insect model. Each strain was cultured on Sabouraud dextrose agar (SDA) for 24–48 h at 27 °C prior to inoculation. Yeast colonies were then suspended in a phosphate-buffered saline solution (PBS), and cells’ concentrations were adjusted using a Neubauer counting chamber to 5 × 10^7 cells for ATCC 90028 and 1 × 10^8 cells for H99. Compounds were prepared by dissolving in 100% dimethylsulfoxide (DMSO) to 4 or 10 mM depending on compound solubility before being further diluted with water to 0.4 or 1 mM for injection into larvae.
Each group of larvae was subsequently incubated at 37 °C for 2 h in 90 mm Petri dishes. After incubation, larvae were injected with 10 μL of the compound into the last right pro-leg and returned to Petri dishes to incubate at 37 °C for 5 days. In addition to the panel of metal compounds, fluconazole (FLC) was included as a positive control (1 and 0.4 mM) and reference antifungal. Larvae inoculated with just the fungal strains and the fungal strains with 10% DMSO were also included as comparison groups. Larvae injected concurrently with PBS instead of fungal inoculum and compounds were used as negative controls. All larvae were checked daily for survival.

[11] = system: C. albicans (ATCC 90028); experiment: Galleria mellonella infection (log CFU reduction) assay; type: in vivo, Candida albicans in Galleria mellonella larvae; conditions: 1 mM, 10 μL; Pt1 19 mg/kg, Pt2 28 mg/kg, fluconazole 12 mg/kg; 24 h at 37 °C; vs 10% DMSO control
Description: To quantify the possible protective effect of Pt1 and Pt2 in G. mellonella challenged with C. albicans, we conducted a CFU reduction assay with these compounds. Briefly, G. mellonella larvae were inoculated with C. albicans (ATCC 90028) and incubated for 2 h at 37 °C. The larvae were then injected with 10 μL of the corresponding compound solution (1 mM) or control (same concentration and injection volume) and incubated for 24 h at 37 °C. The larvae were then anesthetized, macerated, and serially diluted onto SDA (Sabouraud dextrose agar) plates. After 48 h of incubation, the CFUs were counted.
A log CFU reduction assay was conducted for two compounds and two control groups. […] Fluconazole (1 mM) and 10% DMSO were used once again as the control groups. Fifteen G. mellonella larvae (200–250 mg) per test group were selected and inoculated with 10 μL of C. albicans at a concentration of 5 × 10^7 cells/mL and incubated on 90 mm Petri dishes in groups of five larvae for 2 h at 37 °C. Larvae were then subsequently injected with 10 μL of the corresponding test compound or control and returned to Petri dishes to incubate for 24 h at 37 °C.
Larvae were then anesthetized on ice for 5 to 10 min before being placed in individual prefilled 2 mL tubes with 3.0 mm diameter zirconium beads with 1000 μL of PBS. They were then macerated briefly using the BeadBug 6 Homogenizer (Benchmark Scientific, USA) in two 45 s intervals at 4350 rpm. After homogenization, serial dilutions of 1:100, 1:1000, and 1:10,000 were then made for each larva/tube, and 100 μL of the dilution was spread plated onto SDA plates with 50 μg/mL chloramphenicol. Plates were then incubated at 27 °C for 48 h before CFUs were counted.
A one-way ANOVA was conducted to compare the CFU counts for Pt1, Pt2, and both controls. After a significant difference was observed between the groups, a subsequent Tukey’s pairwise test was used to compare the individual test groups with each other.

[12] = initial CO-ADD screening, 1 h, 10% hemolysis
[13] = ranges obtained upon retesting, new batch

## COc1ccc(/C=C/C2=NN(c3ccc(C(=O)[O][Ag])cc3)C(c3ccc(OC)c(OC)c3)C2)cc1OC.COc1ccc(/C=C/C2=NN(c3ccc(C(=O)[O][Ag])cc3)C(c3ccc(OC)c(OC)c3)C2)cc1OC (racemic) [Ag1, (Ε)-1-(4-Carboxyphenyl)-5-(3,4-dimethoxyphenyl)-3-(3,4-dimethoxystyryl)-2-pyrazoline silver(I) complex]
[1]
  MIC50 Cryptococcus deuterogattii ATCC 32609: ≤6 to 24 nM
[2]
  MIC50 Cryptococcus deuterogattii CBS7750: ≤ 6 nM
[3]
  MIC50 Candida glabrata ATCC 90030: ≤ 6 nM
[4]
  MIC50 Candida tropicalis ATCC 750: ≤ 6 nM
[5]
  stability in DMSO solution, NMR or UV–vis spectra: no changes
  stability of solid samples, NMR spectra: identical NMR spectra
[6]
  MIC: 6 nM
  MIC50 Candida auris CBS10913: ≤ 6 nM
[7]
  MIC: ≤6 nM
  MIC50 Candida auris CBS12373: ≤ 6 nM
[8]; [12]
  RBC HC10: >32 µg/mL
[8]; [13]
  RBC HC10: 13 to 154 µM

## O=C([O][Ag])c1ccc(N2N=C(/C=C/C=C/c3ccccc3)CC2/C=C/c2ccccc2)cc1.O=C([O][Ag])c1ccc(N2N=C(/C=C/C=C/c3ccccc3)CC2/C=C/c2ccccc2)cc1 (racemic) [Ag2, 1-(4-Carboxyphenyl)-3-{(1E,3E)-4-phenylbuta-1,3-dien-1-yl}-5-{(E)-styryl}-2-pyrazoline silver(I) complex]
[1]
  MIC50 Cryptococcus deuterogattii ATCC 32609: ≤6 to 98 nM
[2]
  MIC50 Cryptococcus deuterogattii CBS7750: ≤6 to 49 nM
[3]
  MIC50 Candida glabrata ATCC 90030: 6 to 195 nM
[4]
  MIC50 Candida tropicalis ATCC 750: ≤6 to 49 nM
[5]
  stability in DMSO solution, NMR or UV–vis spectra: no changes
  stability of solid samples, NMR spectra: identical NMR spectra
[6]
  MIC Candida auris CBS10913: 6 to 98 nM
  MIC50 Candida auris CBS10913: ≤6 to 49 nM
[7]
  MIC Candida auris CBS12373: 6 to 98 nM
  MIC50 Candida auris CBS12373: ≤6 to 98 nM
[8]; [12]
  RBC HC10: >32 µg/mL
[8]; [13]
  RBC HC10: > 200 µM

## CC(=NN=C(N)[S-])C(C)=NN=C(N)[S-].O=[N+]([O-])[O-].[Co+3].c1c[nH]cn1.c1c[nH]cn1 [Co1]
[6]
  MIC Candida auris CBS10913: 390 to 780 nM
[7]
  MIC Candida auris CBS12373: 390 to 780 nM
[8]; [12]
  RBC HC10: >32 µg/mL
[8]; [13]
  RBC HC10: > 100 µM

## Cc1ccc2ccc3ccc(C)nc3c2n1.Cc1ccc2ccc3ccc(C)nc3c2n1.O=C([O][Eu]([O]C(=O)c1ccccc1F)[O]C(=O)c1ccccc1F)c1ccccc1F [Eu1]
[1]
  MIC50 Cryptococcus deuterogattii ATCC 32609: 24 nM
[2]
  MIC50 Cryptococcus deuterogattii CBS7750: 24 to 98 nM
[3]
  MIC50 Candida glabrata ATCC 90030: 12 to 49 nM
[4]
  MIC50 Candida tropicalis ATCC 750: ≤6 to 49 nM
[6]
  MIC: 6 nM
  MIC50 Candida auris CBS10913: ≤ 6 nM
[7]
  MIC: 6 nM
  MIC50 Candida auris CBS12373: ≤ 6 nM
[8]; [12]
  RBC HC10: >20 µM
[8]; [13]
  RBC HC10: > 200 µM
[8]; retest
  hemolysis: none up to stated concentration: > 200 µM

## C1=CCCC=CCC1.[Cl][Pt][Cl] [Pt1]
[9]
  reduction in bacterial load: did not elicit a significant reduction in bacterial load
[10]
  larva survival: significant larva survival; also recorded: showed some efficacy
[11]
  reduction in CFUs: 0.7 log10
[5]; 7 days at room temperature
  stability in DMSO, 1H NMR spectrum: no changes of the ^1H NMR spectrum
[6]
  MIC Candida auris CBS10913: 6250 to 12500 nM
[7]
  MIC: 3130 nM
[8]; [12]
  RBC HC10: >20 µM
[8]; [13]
  RBC HC10: > 100 µM

## C1=CCCC=CCC1.[I][Pt][I] [Pt2]
[10]
  larva survival: significant larva survival; also recorded: showed some efficacy
[11]
  reduction in CFUs: CFUs comparable to the DMSO control
[6]
  MIC: 12500 nM
[7]
  MIC Candida auris CBS12373: 3130 to 6250 nM
[8]; [12]
  RBC HC10: >20 µM
[8]; [13]
  RBC HC10: > 100 µM

## CC(C)C([O][Pt][Cl])C1=CCCC=CCC1 (stereo not drawn) [Pt4]
[6]
  MIC Candida auris CBS10913: 6250 to 12500 nM
[7]
  MIC Candida auris CBS12373: 1560 to 3120 nM
[8]; [12]
  RBC HC10: >20 µM
[8]; [13]
  RBC HC10: > 100 µM
